In patent publication US11898167B2, “Reversible stencils for fabricating micro-tissues” (The Regents of the University of California, priority 2014, dated 2024):
Entries after “also recorded” stand apart in the source; their conditions may differ.

What was measured:
Format in all cases: cell-based, human
[1] = system: micro-muscle heart tissues; assay: Calcium dose response of twitch force of micro-muscles; settings: increasing extracellular calcium concentrations (2 mM, 6 mM shown)
Text: Representative micro-muscle heart tissues were generated by seeding small numbers of cardiomyocytes into stencil microwells as described herein. Separate micro-muscles were then contacted with different extracellular calcium concentrations.

[2] = system: wild type iPS-CM micro-tissues; assay: Beating (beat rate, contraction velocity) of wild type iPS-CM three-dimensional micro-tissues in stencil microwells, drug response
Procedure: (§1) The beating rate, maximum contraction velocity, and spatial coordination of beating within micro-tissues was assessed visually, and quantified using image processing software was used, such as the custom block-matching optical flow software, described in a publication that is currently under review (Huebsch 2014). Micro-tissue response to drugs, including verapamil and isoproterenol, was tested using an automated inverted microscope (Zeiss).
Beginning five days after seeding cells into micro-tissue molds, the beating parameters of spontaneously beating (non-paced) iPS-CM micro-tissues were analyzed. […] Despite this difference, micro-tissues maintained in RPMI media with B27 supplement all beat at nearly the same rate (FIG. 4B). Micro-tissues incubated in StemPro 34 media beat with a slightly more variable rate from one tissue to the next, but at a basal rate closer to the physiological levels of 1 Hz for human cells (data not shown).

[3] = system: iPS-CM two-dimensional monolayers; assay: Beating of iPS-CM in unpatterned two-dimensional monolayers/cell clusters, drug response
[4] = system: MYBPC3−/− micro-tissues; assay: Beat-rate response of MYBPC3 null iPS-CM micro-tissues
Procedure: as §1
To model hypertrophic cardiomyopathy, MYPBC3 was knocked out of wild type iPS.

[5] = system: heterozygous MYPBC3+/− iPS micro-tissues; assay: Beat-rate response of heterozygous MYBPC3 iPS-CM micro-tissues; settings: first daily 10 uM dose
Procedure: as §1
FIGS. 4G and 4H further illustrate that micro-tissues generated from mutant cells are excellent models of human diseases. Micro-tissues were generated within the dogbone-shaped microwells described herein from three different cell types: wild type MYPBC3^+/+ iPS, heterozygous MYPBC3^+/− iPS, and null MYPBC3^−/− iPS. […] However, upon repeated exposure to isoproterenol, the differences heterozygous and null MYPBC3 tissue responses became less significant (FIG. 4H).

[6] = system: iPS-CM micro-tissues harboring the GCaMP6f calcium indicator; assay: Calcium flux (GCaMP6f reporter) in iPS-CM micro-tissues; parameters: dose or concentration left out as unconfirmed; settings: 1 week and 2 week micro-tissues, paced at 1 Hz; isoproterenol
Procedure: Induced pluripotent stem cells genetically modified to express the GCaMP6f calcium indicator gene product, and then differentiated into cardiomyocytes (iPS-CM). Micro-tissues were made with iPS-CM harboring the GCaMP6f calcium indicator, to allow continuous recording of calcium flux as illustrated in FIG. 8.
FIG. 8D-8E illustrate the functional maturation of iPS-CM-derived micro-tissues (μHT, micro-heart tissues). After 1 or 2 weeks of incubation in the stencil microwells, the micro-tissues were paced at 1 Hz for analysis of inotropy.

Q: How did the twitch force [1] turn out when `[Ca+2]` [calcium] was run?
A: The twitch force was “dramatically increases”.

Q: Which results are given for `CC(C)NCC(O)c1ccc(O)c(O)c1` (stereo not shown) [isoproterenol]?
A: beat-rate response ([2]; 3D micro-tissues, wild type iPS-CM, non-paced, 10 μm isoproterenol): highly reproducible; also recorded: robust increase in beat-rate response; intensity of beating, measured via the maximum contraction velocity (inotropic response) ([2]; 3D micro-tissues, 10 μm isoproterenol): exhibit an inotropic response; cessation of beating at high doses ([2]; 3D-cultured micro-tissues within stencil wells, high doses): no such effects were observed; beating frequency in response to isoproterenol ([2]; wild type MYPBC3+/+ micro-tissues, first daily 10 uM dose): greatest increase in beating frequency; beat-rate response ([3]; 2D cultured iPS-CM monolayers, non-paced, 10 μm isoproterenol): erratic/unpredictable responses; also recorded: varies significantly from one test to the next; also recorded: large variance amongst samples; intensity of beating (inotropic response) ([3]; 2D monolayers, 10 μm isoproterenol): did not affect the intensity of beating; cessation of beating at high doses ([3]; 2D-cultured cells and cell clusters, high doses): stopped beating; beating frequency in response to isoproterenol ([4]; null MYPBC3−/− micro-tissues, first daily 10 uM dose): returned to a lower beating frequency significantly faster; beat-rate (chronotropic response) ([4]; short-term (30 minutes) and chronic (5 days of daily dosing) exposure, 10 μm isoproterenol, compared with wild type): blunted decrease in beat-rate; beating frequency in response to isoproterenol [5]: less than the wild type MYPBC3 tissues but greater than the null MYPBC3 tissues; calcium flux response [6]: responded to isoproterenol

Q: How did the “IC50 value (beating)” value ([2]; stencil micro-tissues compared to the same cells in non-patterned 2D monolayers, 30 minutes per dose) turn out when `COc1ccc(CCN(C)CCCC(C#N)(c2ccc(OC)c(OC)c2)C(C)C)cc1OC` (stereo not shown) [verapamil] was run?
A: The value was “higher IC50 value”.
